Source: PubChem BioAssay (NCI)
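A five-concentration, 48-hour dose response in 96-well plates underlies each endpoint, interpolated linearly between surrounding concentrations. GI50: concentration for 50% inhibition of growth. The concentration for full growth arrest is given as TGI.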

Experiments:
Experiment in all cases: NCI anticancer screen, dose series, 48 h
DLD-1 colon = tested on: DLD-1 colon
DMS 114 small cell lung = tested on: DMS 114 small cell lung
K-562 leukemia = tested on: K-562 leukemia
KM20L2 colon = tested on: KM20L2 colon
LXFL 529 NSCLC = tested on: LXFL 529 NSCLC
M14 melanoma = tested on: M14 melanoma
OVCAR-4 ovarian = tested on: OVCAR-4 ovarian
SNB-78 CNS = tested on: SNB-78 CNS
SR leukemia = tested on: SR leukemia
U251 CNS = tested on: U251 CNS
XF 498 CNS = tested on: XF 498 CNS
HOP-18 NSCLC = tested on: HOP-18 NSCLC
HS 578T breast = tested on: HS 578T breast

| SMILES | TGI (DLD-1 colon) | TGI (DMS 114 small cell lung) | TGI (K-562 leukemia) | TGI (KM20L2 colon) | TGI (LXFL 529 NSCLC) | TGI (M14 melanoma) | TGI (OVCAR-4 ovarian) | TGI (SNB-78 CNS) | TGI (SR leukemia) | TGI (U251 CNS) | TGI (XF 498 CNS) | TGI (HOP-18 NSCLC) | GI50 (K-562 leukemia) | GI50 (KM20L2 colon) | GI50 (LXFL 529 NSCLC) | GI50 (M14 melanoma) | GI50 (SR leukemia) | TGI (HS 578T breast) |
| --- | --- | --- | --- | --- | --- | --- | --- | --- | --- | --- | --- | --- | --- | --- | --- | --- | --- | --- |
| CC(C)OP(=O)(OC(C)C)/C(=N/Nc1ccc([N+](=O)[O-])cc1)NNC(=O)c1ccccc1 | > 100 µM | 43.1 µM | > 100 µM | > 100 µM | 68.5 µM | > 100 µM | 99.2 µM | 80.4 µM | 50.9 µM | 76.7 µM | 48.1 µM |  |  |  |  |  |  |  |
| Cc1cc(N(CCC#N)CCC#N)ccc1/C=C(\N=[N+]=[N-])C(=O)NC(=O)COc1ccccc1 | > 100 µM | > 100 µM | > 100 µM | > 100 µM | > 100 µM | > 100 µM | > 100 µM | > 100 µM | > 100 µM | > 100 µM | > 100 µM | > 100 µM |  |  |  |  |  |  |
| COc1ccc(OC)c(CCc2ccccc2CC(=O)O)c1 | > 100 µM | > 100 µM | > 100 µM | > 100 µM | > 100 µM | > 100 µM | > 100 µM | > 100 µM | > 100 µM | > 100 µM | > 100 µM | > 100 µM |  |  |  |  |  |  |
| CCCCCCCC(=O)OC(COC(=O)Cc1ccccc1)COC(=O)C(C)(C)C (centres undefined) | > 100 µM | > 100 µM | > 100 µM | > 100 µM | > 100 µM | > 100 µM | > 100 µM |  | > 100 µM | > 100 µM |  | > 100 µM |  |  |  |  |  |  |
| Cc1nc2c(n1Cc1ccc(F)cc1)C(=O)c1ccccc1C2=O |  |  | 86.9 µM | > 100 µM | > 100 µM | > 100 µM | > 100 µM | > 100 µM | > 100 µM | > 100 µM | > 100 µM |  |  |  |  |  |  |  |
| CC1=C(N2CC2)C(=O)C(C)=C(N2CC2)C1=O | 0.829 µM | 0.471 µM | 3.92 µM | 0.568 µM | 0.431 µM | 1.25 µM | 2.02 µM | > 100 µM | 5.72 µM | 0.994 µM | 0.3 µM | 11.4 µM |  |  |  |  |  |  |
| CCCCCC1CC(C(C)=O)CN1c1ccc(F)cc1 (centres undefined) | > 100 µM | 62 µM |  | > 100 µM | > 100 µM | > 100 µM |  | > 100 µM | > 10 µM | > 100 µM | 52.5 µM | 82.5 µM |  |  |  |  |  |  |
| CCC/C=C/C=C\C(=O)O[C@@H]1[C@@H](C)[C@]2(O)[C@@H]3C=C(C)C(=O)[C@H]3CC(COC(C)=O)=C[C@H]2[C@@H]2C(C)(C)[C@]12OC(C)=O | 57.2 µM | 94.6 µM | 128 µM | 88.8 µM |  |  | 51.4 µM | 152 µM |  | 69.1 µM | 16.7 µM | 109 µM |  |  |  |  |  |  |
| N#C/C(=C\c1ccccc1F)C(=O)c1ccccc1 |  | > 100 µM | > 100 µM | > 100 µM | > 100 µM | > 100 µM | > 100 µM | > 100 µM | > 100 µM | > 100 µM | > 100 µM |  |  |  |  |  |  |  |
| CN(CCO)c1nc(=O)c2c(n1C1OC(CO)C(O)C(O)C1O)CCCC2 (centres undefined) | > 100 µM | > 100 µM | > 100 µM | > 100 µM | > 100 µM | > 100 µM |  | > 100 µM | > 100 µM | > 100 µM | > 100 µM | > 100 µM |  |  |  |  |  |  |
| CCOC(=O)C(C(=O)OCC)S(C)(=O)=O | > 100 µM | > 100 µM | > 100 µM | > 100 µM |  | > 100 µM | > 100 µM |  | > 100 µM | > 100 µM | > 100 µM | > 100 µM |  |  |  |  |  |  |
| NCCCC(N)(C(=O)O)C(F)F (centres undefined) | > 5000 µM | > 5000 µM | > 5000 µM | > 5000 µM |  |  | > 5000 µM | > 5000 µM |  | > 5000 µM |  | > 50 µM |  |  |  |  |  |  |
| COc1cc(Cn2c3ccccc3c3cc(C)cc(OC)c32)cc2c1[nH]c1ccccc12 | > 25 µM | > 25 µM | > 25 µM | > 25 µM | > 25 µM | 20.2 µM |  | > 25 µM | > 25 µM | > 25 µM |  |  | 9.7 µM | 15.4 µM | 17 µM | 6.27 µM | 16.6 µM |  |
| CC(=O)C(C(=O)C(=O)Nc1cc(Cl)c(Cl)cc1Cl)c1csc(N)n1 (centres undefined) | > 100 µM | > 100 µM | > 100 µM | > 100 µM | > 100 µM | > 100 µM | > 100 µM | > 100 µM | > 100 µM | > 100 µM | > 100 µM |  |  |  |  |  |  |  |
| Nc1n[nH]c(N)n1 | > 10000 µM | 6880 µM | > 10000 µM | > 10000 µM |  | > 10000 µM | > 10000 µM | > 8560 µM | 9840 µM | > 10000 µM | 2750 µM | > 10000 µM |  |  |  |  |  | > 10000 µM |
| COc1cc2cnc3c4cc(O)ccc4ccc3c2cc1OC | > 100 µM | 39.4 µM | > 100 µM | > 100 µM | > 100 µM | > 100 µM | > 100 µM |  | > 100 µM | > 100 µM |  | > 100 µM |  |  |  |  |  |  |
| COc1ccccc1NC(=O)C(=O)C(c1cnc2ccc([N+](=O)[O-])cc2n1)[N+](=O)[O-] (centres undefined) | > 100 µM | 66.4 µM | > 100 µM | > 100 µM | > 100 µM | > 100 µM | > 100 µM | > 100 µM | > 100 µM | > 100 µM | > 100 µM | > 100 µM |  |  |  |  |  |  |
| O=C1CS(=O)c2ccccc2N1 (centres undefined) | > 100 µM |  | > 100 µM | > 100 µM | > 100 µM | > 100 µM | > 100 µM | > 100 µM | > 100 µM | > 100 µM | > 100 µM | > 100 µM |  |  |  |  |  |  |
